According to patent US20180222953A1, “SARCOMERE BIOSENSOR AND METHODS OF USE THEREOF” (REGENTS OF THE UNIVERSITY OF MINNESOTA, priority 2017, published 2018):
Entries after “also recorded” stand apart in the source; their conditions may differ.

What was measured:
[1] = system: isolated adult cardiac myocytes; assay: Sarcomere length (SL) shortening in isolated Sarcometer Tg cardiac myocytes before and after treatment; type: cell-based, mouse; settings: 0.2 Hz stimulation; for SL contractile amplitude: 37° C.
Experimental: Mice were injected with 0.25 cc 10,000U/ml heparin (McKesson cat#NDC 63739-964-25) and anesthetized 10 minutes later with 0.15 cc 50 mg/ml sodium pentobarbital (Vortech Pharmaceuticals). The heart was rapidly excised and placed in ice cold Krebs-Henseleit buffer (Sigma cat#K3753) modified with 25 mM HEPES (Sigma cat#H4034), 10 mM 2,3-Butanedione monoxime (Sigma cat#B0753), 30 mM Taurine (Sigma cat#T0625) and the aorta was cannulated. The mounted heart was placed on a perfusion system at 37° C. The heart was perfused with calcium free modified Krebs-Henseleit buffer with 2 mg/ml crudely purified collagenase for 10 minutes. The heart was then removed from the cannula, the atria were removed and the ventricles were dissected into pieces approximately 2 mm in diameter. The dissected ventricular tissue was then gently mechanically triturated in collagenase to liberate isolated myocytes. After brief low-speed centrifugation, isolated myocytes were resuspended in nominal calcium and 0.025 mg/ml bovine serum albumin (HyClone cat#SH30574.03) in a modified Kreb-Henseleit buffer. After the final trituration step, calcium was added back to the buffer step wise until reaching a final concentration of 2 mM CaCl2. Myocytes were plated on laminin-coated (ThermoFisher cat#23017015) glass coverslips in M199 media (Gibco cat#31100-035) containing 5% fetal bovine serum (HyClone cat#SH30071.03) and incubated for one hour at 37° C. with 5% CO2. After the one hour incubation, the media was changed to serum free M199 media and the myocytes were used for experiments within 5 hours.
(§1) For real-time simultaneous sarcomere length and biosensor measurements, a modified Ionoptix Calcium and Contractility system was used. Sarcomere length changes were detected at 240 Hz sampling rate and fluorescence measurements were detected at 1000 Hz sampling rate with two photomultipler tubes. Measurements were made at 37° C. and a stimulation frequency of 0.2 Hz unless specified otherwise. For biosensor measurements, a Xenon arc lamp was used and filtered with a 500/10 nm hard-coated bandpass filter before entering the microscope turret. The microscope turret featured a 505 dichroic long pass filter. Fluorescent light from the sample was shunted through microscope side port where it was split by a dichroic mirror with light above 650 nm going towards the Myocam for sarcomere length detection and light below 650 nm being further shunted to an additional filter cube. In this final filter cube, a 565 nm dichroic long pass mirror split the light again. Light with wavelengths below 565 nm corresponding to the Clover protein was further cleaned up by a 534/20 nm hard-coated bandpass filter before reaching the photomultiplier tuber and light with wavelengths above 565 nm was further cleaned up by a 592/43 nm hard-coated bandpass filter before reaching the photomultiplier tube. For calcium fluorescence measurements, the mouse myocytes were pre-loaded for 20 minutes in M199 solution containing 1 μM Fura-2 AM (ThermoFisher Cat #F1221), and a ten minute period was allowed for deesterification. For calcium fluorescence measurements the 360/380 nm ratio was determined. For each myocyte, several contractions were measured, averaged, and analyzed using the IonWizard software.
Eight to twelve week old mice of both sexes were injected with 0.25 cc 10,000U/ml heparin and anesthetized 10 minutes later with 0.15 cc 50 mg/ml sodium pentobarbital. The heart was rapidly excised and placed in ice cold Krebs-Henseleit buffer modified with 25 mM HEPES, 10 mM 2,3-Butanedione monoxime, 30 mM Taurine and the aorta was cannulated. The mounted heart was placed on a perfusion system at 37° C. The heart was perfused with calcium free modified Krebs-Henseleit buffer with 2 mg/ml crudely purified collagenase for 10 minutes. The heart was then removed from the cannula, the atria were removed and the ventricles were dissected into pieces approximately 2 mm in diameter. […]

[2] = system: sarcomere activation (Sarcometer cTnC biosensor) in live cardiac myocytes; assay: Sarcometer Clover fluorescence (FRET) transient in live cardiac myocytes before and after treatment; type: cell-based, mouse; settings: 0.2 Hz stimulation; for Sarcometer kinetics / Clover peak fluorescence intensity (Sarcometer amplitude): 37° C.
Experimental: as §1
Eight to twelve week old mice of both sexes were injected with 0.25 cc 10,000U/ml heparin and anesthetized 10 minutes later with 0.15 cc 50 mg/ml sodium pentobarbital. The heart was rapidly excised and placed in ice cold Krebs-Henseleit buffer modified with 25 mM HEPES, 10 mM 2,3-Butanedione monoxime, 30 mM Taurine and the aorta was cannulated. The mounted heart was placed on a perfusion system at 37° C. The heart was perfused with calcium free modified Krebs-Henseleit buffer with 2 mg/ml crudely purified collagenase for 10 minutes. The heart was then removed from the cannula, the atria were removed and the ventricles were dissected into pieces approximately 2 mm in diameter. The dissected ventricular tissue was then gently mechanically triturated in collagenase to liberate isolated myocytes. After brief low-speed centrifugation, isolated myocytes were resuspended in nominal calcium and 0.025 mg/ml bovine serum albumin in a modified Kreb-Henseleit buffer. After the final trituration step, calcium was added back to the buffer step wise until reaching a final concentration of 2 mM CaCl2. Myocytes were plated on laminin-coated (ThermoFisher cat#23017015) glass coverslips in M199 media (Gibco cat#31100-035) containing 5% fetal bovine serum and incubated for one hour at 37° C. with 5% CO2. After the one hour incubation, the media was changed to serum free M199 media and the myocytes were used for experiments within 5 hours.
For real-time simultaneous sarcomere length and Sarcometer biosensor measurements, a modified Ionoptix Calcium and Contractility system was used. Sarcomere length changes were detected at 240 Hz sampling rate and fluorescence measurements were detected at 1000 Hz sampling rate with two photomultipler tubes (FIG. 9). Measurements were made at 37° C. and a stimulation frequency of 0.2 Hz unless specified otherwise. For Sarcometer measurements, a Xenon arc lamp was used and filtered with a 500/10 nm hard-coated bandpass filter before entering the microscope turret. The microscope turret featured a 505 dichroic long pass filter. […]

[3] = system: cardiac myocyte calcium transients; assay: Fura-2 AM calcium transients in single cardiac myocytes; type: cell-based, mouse; settings: 10 μM, n=4 pairs
Experimental: For real-time simultaneous sarcomere length and biosensor measurements, a modified Ionoptix Calcium and Contractility system was used. Sarcomere length changes were detected at 240 Hz sampling rate and fluorescence measurements were detected at 1000 Hz sampling rate with two photomultipler tubes. Measurements were made at 37° C. and a stimulation frequency of 0.2 Hz unless specified otherwise. For biosensor measurements, a Xenon arc lamp was used and filtered with a 500/10 nm hard-coated bandpass filter before entering the microscope turret. The microscope turret featured a 505 dichroic long pass filter. […] For calcium fluorescence measurements, the mouse myocytes were pre-loaded for 20 minutes in M199 solution containing 1 μM Fura-2 AM (ThermoFisher Cat #F1221), and a ten minute period was allowed for deesterification. For calcium fluorescence measurements the 360/380 nm ratio was determined. For each myocyte, several contractions were measured, averaged, and analyzed using the IonWizard software.
For real-time simultaneous sarcomere length and Sarcometer biosensor measurements, a modified Ionoptix Calcium and Contractility system was used. Sarcomere length changes were detected at 240 Hz sampling rate and fluorescence measurements were detected at 1000 Hz sampling rate with two photomultipler tubes (FIG. 9). […] For calcium fluorescence measurements the 360/380 nm ratio was determined. […]

TnC hydrophobic patch = TnC hydrophobic patch (Homo sapiens, UniProt P63316); settings: binds directly to the TnC hydrophobic patch; Oleszczuk et al. 2010; cited from earlier work
[4] = 10 μM, before vs after treatment
[5] = 10 μM, before vs after treatment, listed as PNB

Q: What does the source list for COC(=O)N1CCN(Cc2cccc(NC(=O)Nc3ccc(C)nc3)c2F)CC1 [Omecamtiv mecarbil]?
A: SL contractile amplitude ([1]; 250 nM, n=14 pairs): increased contractile amplitude; SL contractile amplitude ([1]; 250 nM, n=14 pairs, listed as OM): significant increase SL amplitude; Sarcometer kinetics ([2]; 250 nM): no effect; Clover peak fluorescence intensity (Sarcometer amplitude) ([2]; 250 nM, n=17 pairs): no difference in peak fluorescence intensity; Clover peak fluorescence intensity (Sarcometer amplitude) ([2]; 250 nM, n=17 pairs, listed as OM): no effect

Q: What does the source list for COc1ccc(-c2nc3ccc(C4=NNC(=O)CC4C)cc3[nH]2)cc1 (centres unmarked) [Pimobendan]?
A: SL contractile amplitude [1, 4]: increased SL amplitude; also recorded: increased contractile amplitude; Clover peak fluorescence intensity (Sarcometer amplitude) [2, 4]: significant increase in Clover signal amplitude; also recorded: increased peak fluorescence intensity

Q: With NCCCCCCNS(=O)(=O)c1cccc2c(Cl)cccc12 [W7, N-aminohexyl-5-chloro-1-naphthalenesulfonamide] as the compound, how does the SL contractile amplitude [1, 4] read?
A: reduced SL amplitude; also recorded: decreased contractile amplitude

Q: What about the “Clover peak fluorescence intensity (Sarcometer amplitude)” value (from here on “Clover peak fluorescence intensity”) [2, 4] of the same compound?
A: significantly depressed; also recorded: decreased peak fluorescence intensity

Q: And the “calcium transient amplitude or kinetics” value [3]?
A: unaltered; also recorded: no changes in calcium amplitude or kinetics

Q: And the “decrease of TnI switch peptide binding” value (TnC hydrophobic patch)?
A: 13 fold

Q: What does the source list for CC(C)NCC(O)c1ccc(O)c(O)c1 (centres unmarked) [isoproterenol]?
A: SL shortening amplitude ([1]; 50 nM, 30° C., before vs after treatment, n=34 pairs): increase myocyte contraction; also recorded: increased shortening amplitude; sarcomere dynamics kinetics (SL relaxation) ([1]; 50 nM, 30° C., n=34 pairs): speed SL relaxation; also recorded: faster kinetics; Clover fluorescence kinetics (transient decay rate) ([2]; 50 nM, 30° C., n=24 pairs): significantly faster; also recorded: faster kinetics; peak Clover fluorescence intensity ([2]; 50 nM, 30° C., n=24 pairs): increased peak Clover fluorescence intensity

Q: With Cc1ccc2c(c1)C(=O)[C@]1(O)CCN(c3ccc([N+](=O)[O-])cc3)C1=N2 [para-Nitroblebbistatin] as the compound, how does the SL contractile amplitude [1, 4] read?
A: decreased contractile amplitude

Q: What about the SL contractile amplitude [1, 5] of the same compound?
A: effectively blocked contraction

Q: What about the Sarcometer kinetics ([2]; 10 μM) of the same compound?
A: no significant effect

Q: And the “Clover peak fluorescence intensity” value [2, 4]?
A: no difference in peak fluorescence intensity

Q: What about the “Clover peak fluorescence intensity” value [2, 5] of the same compound?
A: no significant effect
